Tests used:
collagen = assay: Western blot of collagen production in KF48 keloid fibroblasts; type: cell-based, human; details: KF48, Cucurbitacin I 30 min then 48 h in growth media, FIG. 5B
Procedure: These vectors containing Stat3 siRNA targets and empty vector were transfected into 293T-based Phoenix-Ampho packaging cell line for 7-9 h, and the amphotropic retroviruses were harvested 48 h later, pelleted to remove nonadherent cells and cellular debris, and filtered through a […] cellulose acetate membrane. The keloid fibroblasts were infected overnight in the presence of 4 μg/ml polybrene, and replaced with fresh 10% FBS/DMEM the following day. Cells were assayed for Western blot 48 h after infection, or for XTT cell proliferation, or for migration assay which was performed by replating the cells into 8 μM Transwell membrane and fixed 24 h later as described above.
(§1) Inhibition of Stat3 was also evaluated by incubating KF48 for 30 min with various doses of Cucurbitacin I, an inhibitor of Jak2/Stat3 activation (32), or with DMSO alone as a control, followed by further incubation in normal growth media for 48 h. […] Cucurbitacin I was acquired from Galchimia (A Corufia, Spain).
Western blot. Cells were either harvested in radioimmune precipitation assay (RIPA) buffer (150 mM NaCl, 50 mM Tris-HCl, pH 7.2, 1% deoxycholic acid, 1% Triton X-100, 0.25 mM EDTA, pH 8.0) containing protease inhibitor cocktail (Roche Diagnostics Corporation, Indianapolis, Ind., USA), or lysis buffer containing 150 mM NaCl, 10 mM Tris-HCl, pH 7.4, 0.5% Triton-X-100, 0.5% NP-40, 1 mM EDTA, 0.2 mM sodium vanadate, supplemented with protease inhibitor tablet. Total cell lysates were collected after centrifugation for 10 min at 4° C., and resolved in 7.5% or 10% polyacrylamide gel electrophoresis, and transferred to PVDF membranes (Bio-Rad Laboratories, Hercules, Calif., USA). The membranes were blotted with anti-phosphoTyr705 Stat3 antibody (1:1000 dilution; Cell Signaling, Beverly, Mass., USA) overnight at 4° C. overnight in PBS containing 1% BSA and 0.1% Tween 20, washed with PBS containing 0.2% Tween 20, and incubated with secondary anti-rabbit IgG antibody (1:2000 dilution; Sigma, Saint Louis, Mo., USA) for 1 h at room temperature, washed with PBS containing 0.2% Tween 20, followed by enhanced chemiluminescence (Amersham Biosciences, Buckinghamshire, UK) or Lumi-Light (Roche Diagnostics Corporation, Indianapolis, USA), and autoradiography. […]
Methods of assessing polypeptides regulated by STAT Collagen may be regulated by STAT 3 activation. monoclonal anti-human collagen I, II, III Was purchased from MONOSAN (Uden, Netherlands). […] These were detected via western blot as described above.

KF48 keloid fibroblasts [1] = assay: Scratch-wound migration assay; type: cell-based, human
Procedure: Cell migration in keloidflbroblasts is inhibited by Stat3 siRNA and Cucurbitacin I. To examine the role of Stat3 in cell migration of skin fibroblasts, KF48 cells were infected with retrovirus expressing Stat3 siRNAs and scratch assays were performed as previously described. […] Three non-overlapping fields were acquired, and graphically illustrated as mean±SD in FIG. 8B. Transmembrane cell migration assays were also performed in triplicates as described earlier, and quantified as mean±SD (FIG. 8C). […] The right panels in FIG. 8B and 8C depict immunoblots of Stat3 and actin to show the efficiencies of inhibition by the Stat3 siRNAs.
The role of Stat3 in cell migration was also examined using Cucurbitacin I in the scratch assay. KF48 cells were first incubated with 10 μg/ml mitomycin C for 2 h, before treating for 30 min with DMSO or 1 μM Cucurbitacin I. The scratch-wound was performed, followed by further incubation in normal growth media. Pictures were taken at 0 h, 22 h and 48 h after wounding.
Migration assay. For migration assay using the scratch method, cells were grown to confluence and incubated with 10 μg/ml mitomycin C for 2 h, before a scratch wound was introduced using a yellow pipette tip. Cells were further incubated in normal growth media and pictures were taken at 0 h, 14 h, 15 h, 22 h, or 48 h after wounding. Three non-overlapping fields were captured by Axiovert 135 microscope from Zeiss and cells migrated into the wound site were counted and presented as mean±SD.

[2] = tested on: A549 human lung carcinoma cells; design: dose or concentration left out as unconfirmed; details: Cucurbitacin I for 24 h; cited from earlier work
A549 tumor = details: nude mice; cited from earlier work
KF48 keloid fibroblasts [3] = assay: XTT proliferation assay; type: cell-based, human
Description: Inhibition of Stat3 decreases cell proliferation. Enhanced fibroblast proliferation is a characteristic of keloid tissue. In agreement with this, keloid fibroblasts grown in normal culture conditions proliferated faster than normal fibroblasts, as observed in KF48 and KF107 compared to NF2 and NF4 (FIG. 6A). To investigate whether Stat3 is involved in the enhanced keloid fibroblast proliferation, KF48 was infected with retrovirus expressing Stat3 siRNAs, and cell proliferation was examined. […] XTT proliferation assay. Cells seeded at 3,000 cells/well in 96-well plates and grown in normal growth conditions, or infected with retroviral Stat3 siRNAs, were assayed for proliferation using the XrT proliferation kit (Roche) according to the manufacturer's instructions. The readings were taken at 450 nm and referenced against 690 nm, 2 h after the addition of the XrT reagent. Each sample was performed at quadruplicates in two to three independent experiments. Data are presented as mean±SD
Cell proliferation was also investigated by treating KF48 cells with various doses of Cucurbitacin I or with DMSO control, before incubating in normal growth media and examined daily over 4 days. Cucurbitacin I concentration as low as I μM was able to inhibit cell proliferation of KF48 compared to DMSO and untreated control (0 μM), whereas Cucurbitacin I exposure at 5 μM and above seemed to cause cell death (FIG. 6C).

JAK2 = JAK2 (Homo sapiens, UniProt O60674); details: cited from earlier work
Stat3 [4] = biological target: T1, Stat3 (Homo sapiens, UniProt P40763); details: cited from earlier work
Target sequence in this assay (P40763 whole entry, species assumed): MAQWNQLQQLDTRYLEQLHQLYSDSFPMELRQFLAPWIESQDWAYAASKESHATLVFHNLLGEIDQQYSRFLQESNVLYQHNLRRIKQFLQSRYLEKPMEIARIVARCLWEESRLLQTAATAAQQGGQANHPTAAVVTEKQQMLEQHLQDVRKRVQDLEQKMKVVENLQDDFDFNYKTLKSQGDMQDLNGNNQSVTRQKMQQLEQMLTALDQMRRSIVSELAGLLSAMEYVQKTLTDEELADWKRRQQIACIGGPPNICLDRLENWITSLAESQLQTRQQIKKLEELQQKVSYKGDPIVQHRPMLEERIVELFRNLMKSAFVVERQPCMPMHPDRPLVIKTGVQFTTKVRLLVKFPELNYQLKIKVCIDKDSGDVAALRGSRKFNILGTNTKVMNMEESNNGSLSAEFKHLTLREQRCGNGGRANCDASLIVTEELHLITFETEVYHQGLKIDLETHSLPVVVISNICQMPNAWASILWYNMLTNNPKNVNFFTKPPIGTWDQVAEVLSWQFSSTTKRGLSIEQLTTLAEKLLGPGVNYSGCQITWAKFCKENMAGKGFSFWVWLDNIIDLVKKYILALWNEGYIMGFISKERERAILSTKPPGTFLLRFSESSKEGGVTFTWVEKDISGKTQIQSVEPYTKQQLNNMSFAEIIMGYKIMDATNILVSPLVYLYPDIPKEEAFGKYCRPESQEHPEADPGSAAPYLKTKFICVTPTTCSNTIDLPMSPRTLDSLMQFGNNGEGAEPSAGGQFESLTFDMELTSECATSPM

Stat3 [5] = biological target: T1, Stat3; assay: Western blot of Stat3 phosphorylation and expression in KF48 treated with Cucurbitacin I; type: cell-based; design: primary fibroblasts derived from normal skin and keloid tissues were further examined; endogenous in cells; host or cells: KF48 primary keloid fibroblasts
Procedure: as §1
Target sequence in this assay (P40763 whole entry): as the sequence (P40763 whole entry, species assumed) above
Western blot. Cells were either harvested in radioimmune precipitation assay (RIPA) buffer (150 mM NaCl, 50 mM Tris-HCl, pH 7.2, 1% deoxycholic acid, 1% Triton X-100, 0.25 mM EDTA, pH 8.0) containing protease inhibitor cocktail (Roche Diagnostics Corporation, Indianapolis, Ind., USA), or lysis buffer containing 150 mM NaCl, 10 mM Tris-HCl, pH 7.4, 0.5% Triton-X-100, 0.5% NP-40, 1 mM EDTA, 0.2 mM sodium vanadate, supplemented with protease inhibitor tablet. Total cell lysates were collected after centrifugation for 10 min at 4° C., and resolved in 7.5% or 10% polyacrylamide gel electrophoresis, and transferred to PVDF membranes (Bio-Rad Laboratories, Hercules, Calif., USA). The membranes were blotted with anti-phosphoTyr705 Stat3 antibody (1:1000 dilution; Cell Signaling, Beverly, Mass., USA) overnight at 4° C. overnight in PBS containing 1% BSA and 0.1% Tween 20, washed with PBS containing 0.2% Tween 20, and incubated with secondary anti-rabbit IgG antibody (1:2000 dilution; Sigma, Saint Louis, Mo., USA) for 1 h at room temperature, washed with PBS containing 0.2% Tween 20, followed by enhanced chemiluminescence (Amersham Biosciences, Buckinghamshire, UK) or Lumi-Light (Roche Diagnostics Corporation, Indianapolis, USA), and autoradiography. The membranes were stripped with Restore Western Blotting Stripping Buffer (Pierce, Rockford, Ill., USA) according to manufacturer's instructions and reblotted with anti-phosphoSer727 Stat3 (1:1000 dilution; Cell Signaling, Beverly, Mass., USA) and secondary anti-mouse IgG antibody (1:2000 dilution; Sigma, Saint Louis, Mo., USA). The stripping and reblotting procedure was repeated with monoclonal anti-Stat3 (1:1000 dilution; BD Transduction Laboratories), polyclonal anti-actin (1:1000 dilution; Sigma) and monoclonal anti-collagen antibody (1:1000 dilution; MONOSAN).

[6] = KF48, 30 min treatment then 48 h in growth media, FIG. 5B

Chain of JAK2 (O60674 whole entry, species assumed): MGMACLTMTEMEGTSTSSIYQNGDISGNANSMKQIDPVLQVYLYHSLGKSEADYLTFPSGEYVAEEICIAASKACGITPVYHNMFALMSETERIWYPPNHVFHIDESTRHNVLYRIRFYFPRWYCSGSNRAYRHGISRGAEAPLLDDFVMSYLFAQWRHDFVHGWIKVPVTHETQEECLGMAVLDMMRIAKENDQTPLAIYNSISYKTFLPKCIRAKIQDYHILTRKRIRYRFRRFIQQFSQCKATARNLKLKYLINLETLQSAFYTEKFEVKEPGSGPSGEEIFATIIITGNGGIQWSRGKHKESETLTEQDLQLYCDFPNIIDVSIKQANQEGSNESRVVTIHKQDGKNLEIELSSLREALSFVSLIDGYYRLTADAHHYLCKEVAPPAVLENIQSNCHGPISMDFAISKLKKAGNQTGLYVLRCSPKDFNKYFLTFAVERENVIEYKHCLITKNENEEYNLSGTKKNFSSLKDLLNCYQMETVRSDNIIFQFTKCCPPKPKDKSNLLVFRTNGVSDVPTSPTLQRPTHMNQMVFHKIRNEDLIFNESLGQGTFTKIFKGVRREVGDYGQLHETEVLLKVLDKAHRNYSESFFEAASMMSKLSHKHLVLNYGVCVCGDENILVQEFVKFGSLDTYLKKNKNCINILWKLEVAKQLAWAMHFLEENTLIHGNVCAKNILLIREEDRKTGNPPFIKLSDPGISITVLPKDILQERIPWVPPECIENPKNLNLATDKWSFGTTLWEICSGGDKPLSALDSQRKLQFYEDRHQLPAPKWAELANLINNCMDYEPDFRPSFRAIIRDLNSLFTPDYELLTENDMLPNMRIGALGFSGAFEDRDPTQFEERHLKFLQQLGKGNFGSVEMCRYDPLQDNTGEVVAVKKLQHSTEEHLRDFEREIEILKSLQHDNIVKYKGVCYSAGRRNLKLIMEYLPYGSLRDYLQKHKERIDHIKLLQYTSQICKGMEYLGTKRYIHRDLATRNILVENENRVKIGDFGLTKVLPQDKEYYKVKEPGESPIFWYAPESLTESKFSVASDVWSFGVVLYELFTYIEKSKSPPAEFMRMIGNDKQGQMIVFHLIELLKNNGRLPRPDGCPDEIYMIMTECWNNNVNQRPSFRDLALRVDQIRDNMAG

## CC(C)(O)/C=C/C(=O)[C@](C)(O)[C@H]1[C@H](O)C[C@@]2(C)[C@@H]3CC=C4[C@@H](C=C(O)C(=O)C4(C)C)[C@]3(C)C(=O)C[C@]12C [Cucurbitacin I]
collagen
  inhibition of collagen production: dose-dependent inhibition
KF48 keloid fibroblasts [1]; 1 μM for 30 min, 22 h after wounding, vs DMSO, P<0.001
  cell migration at 22 h: significant reduction in cell migration
KF48 keloid fibroblasts [1]; 1 μM for 30 min, 48 h after wounding, vs DMSO
  cell migration at 48 h: delayed migration
KF48 keloid fibroblasts [1]; 1 μM for 30 min, compared to DMSO control, FIG. 8D
  migration of KF48, scratch assay: decelerated the migration
KF48 keloid fibroblasts [1]; keloid fibroblasts
  concentration as low as, effective in decreasing rate of migration to that of normal fibroblasts: 1 µM
[2]
  apoptosis: 9.8%
  tumor cell death: 33%
A549 tumor
  inhibition of A549 tumor growth: 55.4%
KF48 keloid fibroblasts [3]; KF48, FIG. 6C
  exposure that seemed to cause cell death: ≥ 5 µM
KF48 keloid fibroblasts [3]; KF48, examined daily over 4 days, vs DMSO and untreated
  concentration as low as, able to inhibit cell proliferation: 1 µM
KF48 keloid fibroblasts [3]; higher doses, FIGS. 6C and 8D
  observations at higher doses: cell morphology changes and the beginning of some cell death
JAK2
  inhibition of activation of JAK2: inhibit
  potency on pJak2 relative to pSTAT 3: more potent inhibitor of pJak2 than pSTAT 3
Stat3 [4]
  inhibition of activation of STAT 3: inhibit
Stat3 [5]; KF48, 30 min treatment then 48 h
  effective concentration as low as (inhibition of pY705 Stat3, pS727 Stat3 and collagen production): 1 μM
Stat3 [5]; KF48, 30 min treatment then 48 h, FIG. 5B
  Stat3 expression: dose-dependent decrease
Stat3 [5]; [6]
  inhibition of pS727 Stat3: dose-dependent inhibition
  inhibition of pY705 Stat3: dose-dependent inhibition
